Assay results reported in article PMC10477886, “Adamantaniline Derivatives Target ATP5B to Inhibit Translation of Hypoxia Inducible Factor‐1α” (Advanced Science, 2023).

Legend:
[1] = toxicity in ICR mice, administering for 1 week; assay type: in vivo; conditions: 100 mg kg^−1 intraperitoneal for 1 week
Experimental: (§1) First, we roughly screened the concentrations in the plasma of seven selected compounds (1‐3n, 1‐3au, 1‐4a, 1‐4k, 1‐4l, 1‐4m, and 1‐4p) at indicated times after intraperitoneal administration in the Institute of Cancer Research (ICR) mice at a dose of 50 mg kg^−1 with two mice per compound, the blood at five different times was collected and the plasma concentration was analyzed finally. […] Besides, we examined the toxicity of HI‐104 in ICR mice by administering for 1 week at a dose of 100 mg kg^−1 by intraperitoneal injection.

[2] = plasma concentration and pharmacokinetics after intraperitoneal administration in ICR mice; assay type: in vivo
Experimental: as §1

[3] = tested on: MHCC97‐L xenograft tumor; assay: MHCC97‐L xenograft model in nude mice (wildtype and ATP5A/ATP5B knock‐out); assay type: in vivo
Source text: HIF‐1α overexpression is implicated in human hepatocellular carcinoma (HCC).^[ [57] ^] To investigate the biological significance of HI‐104 in the progression of HCC by targeting ATP5A or ATP5B, we performed xenograft models in nude mice with ATP5A or ATP5B stable knock‐out MHCC97‐L cell lines (Figure 6A). The cells were inoculated to 6–8 weeks old nude mice under the armpits, and daily intraperitoneal injection of HI‐104 was started after the tumor volume reached 100 mm^3. Tumor volume and body weight were monitored during the treatment.
MHCC97L wildtype and ATP5A or ATP5B stable knock‐out cells (3 × 10^6) were implanted subcutaneously into the right flanks of 6‐week‐old female BALB/c nude mice. After most of the tumors had reached a threshold size of 100 mm^3, the mice received an intraperitoneal injection of vehicle alone (10% DMSO, 10% Cremophor, and 80% saline, pH 7–8) or HI‐104 over 10 days. The tumor volume was monitored every other day with calipers. After 10 days of treatment or if the mice met humane endpoint criteria, the mice were sacrificed, and tumors were dissected, photographed, and weighed. Tumor tissues were either collected and fixed in 10% neutral‐buffered formalin or snap‐frozen in liquid N2 and stored at −80 °C for subsequent analyses. All animals used in this study were handled in accordance with federal and institutional guidelines under a protocol approved by the Institutional Animal Care and Use Committee at Shanghai Jiao Tong University School of Medicine.

[4] = tested on: HIF‐1α transcriptional activity; assay: dual‐luciferase assay (HRE‐Firefly Luciferase / renilla) of HIF‐1α transcriptional activity in HEK293T cells; assay type: cell-based, human; conditions: for inhibition at 10 µM / IC50: Homo sapiens, HEK-293T, mean ± s.d. (n = 3); for inhibition at 10 µM: incubation 24 h, read-out: Inhibition rate [%] @ 10 µM; for IC50: HEK293T dual‐luciferase
Source text: To screen HIF‐1α inhibitors in a robust cell‐based assay, we optimized the dual‐luciferase assay with pLenti‐HIF‐1αP2A (P402A and P564A) instead of pLenti‐HIF‐1α in order to ensure the expression of HIF‐1α under normoxia condition. In the cell‐based assay, HEK293T cells were co‐transfected with pLenti‐HIF‐1αP2A, renilla, and hypoxia‐responsive element (HRE)‐Firefly Luciferase (Figure S1, Supporting Information). […] Three compounds were selected as the positive controls including two inhibitors (PX‐478 2HCl and BAY 87‐2243) and an activator (BAY 85‐3934) in the screening assay.
HEK293T cells were stably transfected with reporter plasmids pGMLV‐HRE‐LUC‐puromycin, pMSCV‐renilla‐hygromycin, and pLenti‐HIF‐1αP2A‐neomycin. Stable cell line constructed above, 293‐HIF‐1αP2A‐HRE‐Fluc‐Rluc, were seeded in 384‐well plates and cultured in DMEM with 10% FBS. The following day, the cells were pretreated with indicated chemical compounds from the National Compound Library of the Shanghai Institute of Materia Medica, Chinese Academy of Sciences by Mosquito HTS. The plate was then placed in an incubator chamber and incubated at 37 °C for 24 h. The ratio of firefly/renilla luciferase activity was determined by using the Envision (PerkinElmer).
Stable cell line 293‐HRE‐Fluc‐Rluc expressed luciferase and renilla or HEK293T cells transfected with indicated plasmids (pGL3‐HRE‐luciferase and pSV40‐renilla) were seeded in a 96‐well plate. The cells were co‐incubated with indicated compounds for 24 h and luciferase activities were detected in Microplate Reader (BioTek SYNEGRY H1) using the Dual Luciferase Reporter Assay System Kit (Promega, USA E1910) according to the manufacturer's instruction. The relative Luc activity was normalized by renilla activity. Three independent experiments were performed, and the calculated means and SDs are presented.

[5] = target: F1‐ATP synthase complex (Sus scrofa, UniProt K7GLT8+P80021); assay: fluorescence polarization binding assay; parameters: species or system pig
F1‐ATP synthase complex, sequence (K7GLT8 entry or part of it): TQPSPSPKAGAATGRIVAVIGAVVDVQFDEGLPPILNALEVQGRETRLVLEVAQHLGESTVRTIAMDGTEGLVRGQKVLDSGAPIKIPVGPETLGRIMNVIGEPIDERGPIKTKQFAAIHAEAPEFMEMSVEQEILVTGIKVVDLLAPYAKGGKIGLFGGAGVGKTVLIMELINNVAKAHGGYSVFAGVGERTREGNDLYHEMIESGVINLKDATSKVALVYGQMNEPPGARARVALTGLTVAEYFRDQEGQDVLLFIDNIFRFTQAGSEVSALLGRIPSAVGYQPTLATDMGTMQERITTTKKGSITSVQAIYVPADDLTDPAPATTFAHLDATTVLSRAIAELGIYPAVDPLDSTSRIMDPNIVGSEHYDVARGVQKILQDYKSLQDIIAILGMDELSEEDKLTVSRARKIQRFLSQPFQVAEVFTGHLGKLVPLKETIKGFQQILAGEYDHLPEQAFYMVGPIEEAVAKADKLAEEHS
F1‐ATP synthase complex, sequence (A0A286ZYL7 entry or part of it, further chain): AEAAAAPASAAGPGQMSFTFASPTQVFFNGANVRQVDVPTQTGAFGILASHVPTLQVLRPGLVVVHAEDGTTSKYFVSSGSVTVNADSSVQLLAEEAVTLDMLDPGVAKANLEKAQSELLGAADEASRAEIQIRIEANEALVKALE
F1‐ATP synthase complex, sequence (A5GFX4 entry or part of it, further chain): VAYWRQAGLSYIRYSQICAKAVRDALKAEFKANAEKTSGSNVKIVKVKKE
F1‐ATP synthase complex, sequence (P80021 44-553): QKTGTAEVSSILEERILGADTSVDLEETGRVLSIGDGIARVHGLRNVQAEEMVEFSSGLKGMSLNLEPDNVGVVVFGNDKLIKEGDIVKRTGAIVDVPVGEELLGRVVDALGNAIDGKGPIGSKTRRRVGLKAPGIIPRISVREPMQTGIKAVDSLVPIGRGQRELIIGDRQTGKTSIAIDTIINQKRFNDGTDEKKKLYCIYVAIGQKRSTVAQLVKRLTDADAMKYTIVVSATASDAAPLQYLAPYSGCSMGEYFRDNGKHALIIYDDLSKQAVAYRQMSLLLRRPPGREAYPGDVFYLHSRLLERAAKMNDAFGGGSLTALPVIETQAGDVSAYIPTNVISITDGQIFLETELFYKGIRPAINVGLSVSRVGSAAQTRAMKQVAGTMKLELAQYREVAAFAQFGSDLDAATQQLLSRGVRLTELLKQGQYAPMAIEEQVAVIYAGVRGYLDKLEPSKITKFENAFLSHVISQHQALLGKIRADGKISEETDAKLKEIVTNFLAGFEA
Source text: ATP5A and ATP5B are important components of FOF1–ATP synthase, also known as ATP synthase, which is a protein complex that catalyzes ATP synthesis by utilizing energy from the translocation of protons across biological membranes.^[ [40] ^] FOF1‐ATP synthase consists of two domains: the membrane‐spanning domain, FO, which acts as a proton channel, and the soluble catalytic domain, F1, which synthesizes ATP and is composed of nine subunits(α 3 β 3 γδɛ).^[ [41], [42], [43], [44] ^] […] To verify whether HI‐101 targeted ATP5A and ATP5B, we knocked down the subunits of F1 domains separately by shRNA.
F1‐ATPase at indicated concentrations was incubated with HI‐103 (4 nM), bodipy‐1 was as a negative molecule, conduct the experiment after incubating in 96‐well microplates of black polystyrene for 10 min. The FP results were analyzed with GraphPad Prism 9.0.

[6] = tested on: HIF‐1α protein level; assay: western blot of HIF‐1α protein level in cells; assay type: cell-based, human; conditions: hypoxia
Experimental: Cells were lysed with RIPA lysis (Epizyme, PC101) containing 1% cocktail protease inhibitors (MCE), and protein concentrations were determined by BCA kits (Beyotime, P0012S). Samples were denatured using DS‐PAGE Protein Staining and Loading Buffer (5×) (Beyotime, P0015L) followed by boiling for 10 min at 98 °C then the proteins were fractionated by 10% or 12.5% SDS‐PAGE and transferred to Cellulose Nitrate Membrane Filters (WHATMAN). After blocking in 5% non‐fat milk for 2 h at room temperature, the membrane was incubated overnight with specific antibodies at 4 °C, followed by horseradish peroxidase (HRP)‐linked anti‐mouse or anti‐rabbit secondary antibody (Cell Signaling Technology). Finally, An Immobilon Western Chemiluminescent HRP Substrate Kit (Merck Millipore) was used for protein bands detection. In addition, blots were probed with anti‐β‐actin (Merck, Darmstadt, Germany) antibody as the internal control.

Compound	toxicity (body weight and mental status) [1]	concentration in the plasma (rough screen) ([2]; intraperitoneal 50 mg kg^−1, two mice per compound, five times)	AUC ([2]; mouse, ip, intraperitoneal, plasma, read-out: area under the curve (AUC0‐24 h)) [µg·h/mL]	Cmax ([2]; mouse, ip, intraperitoneal, plasma, read-out: maximum concentration (Cmax)) [µg/mL]	half-life ([2]; mouse, plasma, ip, intraperitoneal) [min]	tumor growth ([3]; ATP5B KO MHCC97‐L xenograft models)	tumor volume and weight ([3]; wildtype MHCC97‐L xenograft, daily intraperitoneal injection)	body weight ([3]; wildtype MHCC97‐L xenograft, nude mice)	inhibition at 10 µM ([4]; HEK293T) [%]	IC50 [4] [nM]	Kd [5] [nM]	HIF‐1α protein level [6]	HIF‐1α transcriptional activity (relative luciferase activity), in words ([4]; HEK293T, hypoxia)
C[N+](C)(C)CCCC(=O)Nc1ccc(C(=O)Nc2ccc(C34CC5CC(CC(C5)C3)C4)cc2)cc1 [1‐3au, 4‐((4‐((4‐((3r,5r,7r)‐Adamantan‐1‐yl)Phenyl)Carbamoyl)Phenyl)Amino)‐N,N,N‐Trimethyl‐4‐Oxobutan‐1‐Aminium]	not overtly toxic	high concentration in the plasma	861	91.7	340	almost had no effect	reduced the tumor volume and weight	tolerant weight loss	89.9 ± 1.6	1300 ± 300	–	–	–
CC1=CC(C)=[N+]2C1=C(CCCC(=O)Nc1ccc(C(=O)Nc3ccc(C45CC6CC(CC(C6)C4)C5)cc3)cc1)c1c(C)cc(C)n1[B-]2(F)F [1‐3z, N‐(4‐((3r,5r,7r)‐Adamantan‐1‐yl)Phenyl)−4‐(4‐(5,5‐Difluoro‐1,3,7,9‐Tetramethyl‐5H‐4l4,5l4‐Dipyrrolo[1,2‐c:2′,1′‐f][1,3,2]Diazaborinin‐10‐yl)Butanamido)Benzamide]	–	–	–	–	–	–	–	–	80.3 ± 1.2	2100 ± 500	2.6	–	–
CC[C@H]1/C=C/C=C/C[C@@H](C)[C@H](O)[C@@](C)(O)C(=O)[C@@H](C)[C@H](O)[C@@H](C)C(=O)[C@@H](C)[C@H](O)[C@@H](C)/C=C/C(=O)O[C@@H]2[C@H](C)[C@H](CC1)O[C@]1(CC[C@H](C)[C@H](C[C@@H](C)O)O1)[C@H]2C [Oligomycin, reference compound]	–	–	–	–	–	–	–	–	–	–	–	decreased HIF‐1α transcriptional activity and protein level in a dose‐dependent manner	decreased HIF‐1α transcriptional activity and protein level in a dose‐dependent manner
